Tested on: 323965-272-R-J2-PDC complex spheroid growth, % test/control
Test: Anticancer human tumor 323965-272-R-J2-PDC patient-derived pancreatic carcinoma cell line growth inhibition [Asc]
Conditions: for IC50: curve of first compound; for viability, T/C: stronger effect = lower value; active = viability on the fitted dose curve at most 10% of control; inactive = the rest
In short: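 Complex solid-tumor spheroids incorporating human endothelial and mesenchymal stem cells received single agents or combinations over half-log dilution ranges anchored to clinical Cmax.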
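Note: compound exposure lasted 7 days starting three days after spheroid seeding.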
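Throughout, for viability, T/C: 100% = DMSO vehicle control wells with viability set relative to vehicle.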

CCN1CCN(Cc2ccc(Nc3ncc(F)c(-c4cc(F)c5nc(C)n(C(C)C)c5c4)n3)nc2)CC1 + Cc1c(S(C)(=O)=O)c(-c2cc(F)cc(N3CCN(c4ccc(NS(=O)(=O)c5ccc(NC(CCN6CCC(C(=O)OCCCP(=O)(O)O)CC6)CSc6ccccc6)c(S(=O)(=O)C(F)(F)F)c5)cc4)CC3)c2)c(-c2ccc(Cl)cc2)n1C(C)C
> 1 µM: IC50 (second compound 0.0316 µM) | IC50 (second compound 0.1 µM) | IC50 (second compound 0.316 µM) | IC50 (second compound 1 µM) | IC50 (second compound 3.16 µM) | IC50 (second compound 10 µM)
inactive: viability, T/C (second compound 0.0316 µM, first compound 0.00316 µM) 110% | viability, T/C (second compound 0.0316 µM, first compound 0.01 µM) 98.8% | viability, T/C (second compound 0.0316 µM, first compound 0.0316 µM) 106% | viability, T/C (second compound 0.0316 µM, first compound 0.1 µM) 90.4% | viability, T/C (second compound 0.0316 µM, first compound 0.316 µM) 70.5% | viability, T/C (second compound 0.0316 µM, first compound 1 µM) 67.7% | viability, T/C (second compound 0.1 µM, first compound 0.00316 µM) 102% | viability, T/C (second compound 0.1 µM, first compound 0.01 µM) 109% | viability, T/C (second compound 0.1 µM, first compound 0.0316 µM) 95.1% | viability, T/C (second compound 0.1 µM, first compound 0.1 µM) 82.5% | viability, T/C (second compound 0.1 µM, first compound 0.316 µM) 70.7% | viability, T/C (second compound 0.1 µM, first compound 1 µM) 73.6% | viability, T/C (second compound 0.316 µM, first compound 0.00316 µM) 103% | viability, T/C (second compound 0.316 µM, first compound 0.01 µM) 102% | viability, T/C (second compound 0.316 µM, first compound 0.0316 µM) 100% | viability, T/C (second compound 0.316 µM, first compound 0.1 µM) 81% | viability, T/C (second compound 0.316 µM, first compound 0.316 µM) 72.5% | viability, T/C (second compound 0.316 µM, first compound 1 µM) 78.1% | viability, T/C (second compound 1 µM, first compound 0.00316 µM) 102% | viability, T/C (second compound 1 µM, first compound 0.01 µM) 93.1% | viability, T/C (second compound 1 µM, first compound 0.0316 µM) 84.2% | viability, T/C (second compound 1 µM, first compound 0.1 µM) 76.6% | viability, T/C (second compound 1 µM, first compound 0.316 µM) 72.8% | viability, T/C (second compound 1 µM, first compound 1 µM) 70.3% | viability, T/C (second compound 3.16 µM, first compound 0.00316 µM) 83.9% | viability, T/C (second compound 3.16 µM, first compound 0.01 µM) 86.2% | viability, T/C (second compound 3.16 µM, first compound 0.0316 µM) 77.8% | viability, T/C (second compound 3.16 µM, first compound 0.1 µM) 65.8% | viability, T/C (second compound 3.16 µM, first compound 0.316 µM) 67.5% | viability, T/C (second compound 3.16 µM, first compound 1 µM) 61.2% | viability, T/C (second compound 10 µM, first compound 0.00316 µM) 76.4% | viability, T/C (second compound 10 µM, first compound 0.01 µM) 74.4% | viability, T/C (second compound 10 µM, first compound 0.0316 µM) 64.1% | viability, T/C (second compound 10 µM, first compound 0.1 µM) 66.5% | viability, T/C (second compound 10 µM, first compound 0.316 µM) 71.3% | viability, T/C (second compound 10 µM, first compound 1 µM) 70.3%

O=C(c1cc(Cc2n[nH]c(=O)c3ccccc23)ccc1F)N1CCN(C(=O)C2CC2)CC1 + CCN1C(C(=O)NC23CCC(C(=O)O)(CC2)CC3)C(c2cccc(Cl)c2F)C2(C(=O)Nc3cc(Cl)ccc32)C12CCCCC2
inactive: viability, T/C (second compound 0.00949 µM, first compound 0.0316 µM) 106% | viability, T/C (second compound 0.00949 µM, first compound 0.1 µM) 107% | viability, T/C (second compound 0.00949 µM, first compound 0.316 µM) 113% | viability, T/C (second compound 0.00949 µM, first compound 1 µM) 110% | viability, T/C (second compound 0.00949 µM, first compound 3.16 µM) 110% | viability, T/C (second compound 0.00949 µM, first compound 10 µM) 91.5% | viability, T/C (second compound 0.03 µM, first compound 0.0316 µM) 103% | viability, T/C (second compound 0.03 µM, first compound 0.1 µM) 111% | viability, T/C (second compound 0.03 µM, first compound 0.316 µM) 106% | viability, T/C (second compound 0.03 µM, first compound 1 µM) 106% | viability, T/C (second compound 0.03 µM, first compound 3.16 µM) 107% | viability, T/C (second compound 0.03 µM, first compound 10 µM) 95.8% | viability, T/C (second compound 0.0949 µM, first compound 0.0316 µM) 113% | viability, T/C (second compound 0.0949 µM, first compound 0.1 µM) 107% | viability, T/C (second compound 0.0949 µM, first compound 0.316 µM) 111% | viability, T/C (second compound 0.0949 µM, first compound 1 µM) 108% | viability, T/C (second compound 0.0949 µM, first compound 3.16 µM) 116% | viability, T/C (second compound 0.0949 µM, first compound 10 µM) 100% | viability, T/C (second compound 0.3 µM, first compound 0.0316 µM) 116% | viability, T/C (second compound 0.3 µM, first compound 0.1 µM) 107% | viability, T/C (second compound 0.3 µM, first compound 0.316 µM) 117% | viability, T/C (second compound 0.3 µM, first compound 1 µM) 117% | viability, T/C (second compound 0.3 µM, first compound 3.16 µM) 103% | viability, T/C (second compound 0.3 µM, first compound 10 µM) 97.5% | viability, T/C (second compound 0.949 µM, first compound 0.0316 µM) 112% | viability, T/C (second compound 0.949 µM, first compound 0.1 µM) 106% | viability, T/C (second compound 0.949 µM, first compound 0.316 µM) 122% | viability, T/C (second compound 0.949 µM, first compound 1 µM) 95.4% | viability, T/C (second compound 0.949 µM, first compound 3.16 µM) 109% | viability, T/C (second compound 0.949 µM, first compound 10 µM) 85.1% | viability, T/C (second compound 3 µM, first compound 0.0316 µM) 102% | viability, T/C (second compound 3 µM, first compound 0.1 µM) 105% | viability, T/C (second compound 3 µM, first compound 0.316 µM) 107% | viability, T/C (second compound 3 µM, first compound 1 µM) 105% | viability, T/C (second compound 3 µM, first compound 3.16 µM) 92.4% | viability, T/C (second compound 3 µM, first compound 10 µM) 93.3%
> 10 µM: IC50 (second compound 0.00949 µM) | IC50 (second compound 0.03 µM) | IC50 (second compound 0.0949 µM) | IC50 (second compound 0.3 µM) | IC50 (second compound 0.949 µM) | IC50 (second compound 3 µM)
